Laboratory results taken from patent US4537717A.
≈ marks a conversion by molar mass, not a printed value. Where “and” joins values, the source holds several entries; their conditions need not be identical. Identical values can stand only once.

Tests used:
[1] = system: Staphylococcus aureus ATCC 6738P; assay: agar-plate disc-diffusion test; type: cell-based; conditions: suspended in water at 1 mg/ml; 7 mm disc; 24-48 hours at 25-37° C.
[2] = system: Micrococcus luteus ATCC 9341; assay: agar-plate disc-diffusion test; type: cell-based; conditions: suspended in water at 1 mg/ml; 7 mm disc; 24-48 hours at 25-37° C.
[3] = system: Staphylococcus aureus X1.1; type: cell-based; conditions: agar dilution; 2, 5, 17, 22 median of three tests; paired values two experiments
[4] = system: Staphylococcus aureus V41; type: cell-based; conditions: penicillin-resistant strain; agar dilution; 2, 5, 17, 22 median of three tests; paired values two experiments
[5] = system: Staphylococcus aureus X400; type: cell-based; conditions: methicillin-resistant strain; agar dilution; 2, 5, 17, 22 median of three tests; paired values two experiments
[6] = system: Staphylococcus epidermidis EPI1; type: cell-based; conditions: agar dilution; 2, 5, 17, 22 median of three tests; paired values two experiments
[7] = system: Staphylococcus epidermidis EPI2; type: cell-based; conditions: agar dilution; 2, 5, 17, 22 median of three tests; paired values two experiments
[8] = system: Streptococcus pyogenes C203; type: cell-based; conditions: agar dilution; 2, 5, 17, 22 median of three tests; paired values two experiments
[9] = system: Streptococcus pneumoniae Park I; type: cell-based; conditions: agar dilution; 2, 5, 17, 22 median of three tests; paired values two experiments
[10] = system: Streptococcus pneumoniae Group D X66; type: cell-based; conditions: agar dilution; 2, 5, 17, 22 median of three tests; paired values two experiments
Streptococcus Group 9960 = type: cell-based, Streptococcus pneumoniae; conditions: agar dilution; 2, 5, 17, 22 median of three tests; paired values two experiments
Streptococcus pyogenes = assay: in vivo activity against experimental bacterial infection (ED50); conditions: mice, dose protecting fifty percent of test animals; for ED50 Streptococcus pyogenes Oral: two doses orally; for ED50 Streptococcus pyogenes Subcutaneous: two doses subcutaneously
toxicity test (LD50) = conditions: mouse, in vivo, iv, mice; administered intravenously
[11] = system: Bacillus subtilis ATCC 6633; assay: agar-plate disc-diffusion test; conditions: 7 mm disc, 24-48 hours at 25-37° C.; for Size of Zone of Inhibition (mm) B. subtilis ATCC 6633, grown on minimal nutrient agar: 1 mg/ml; for Size of Zone of Inhibition (mm) Bacillus subtilis ATCC 6633: suspended in water at 1 mg/ml
Experimental: ^a Compounds were suspended in water at a concentration of 1 mg/ml; a
7 mm disc was dipped into the suspension and then placed on the agar
surface; incubation: 24-48 hours at 25-37° C.
^b Grown on minimal nutrient agar

Staphylococcus aureus = assay: in vivo activity against experimental bacterial infection (ED50); conditions: mice; two doses subcutaneously; dose protecting fifty percent of test animals

Compound: CCCCCCCC(=O)N[C@@H](Cc1c[nH]c2ccccc12)C(=O)N[C@@H](CC(N)=O)C(=O)N[C@@H](CC(=O)O)C(=O)N[C@@H]1C(=O)NCC(=O)N[C@@H](CCCN)C(=O)N[C@@H](CC(=O)O)C(=O)N[C@H](C)C(=O)N[C@@H](CC(=O)O)C(=O)NCC(=O)N[C@H](CO)C(=O)N[C@@H]([C@H](C)CC(=O)O)C(=O)N[C@@H](CC(=O)c2ccccc2N)C(=O)O[C@@H]1C [Compound 2]
- Size of Zone of Inhibition (mm) Staphylococcus aureus ATCC 6738P [1]: 23 mm
- Size of Zone of Inhibition (mm) Micrococcus luteus ATCC 9341 [2]: 23 mm
- MIC Staphylococcus aureus X1.1 [3]: 4 µg/mL (≈ 2.51 µM)
- MIC Staphylococcus aureus V41 [4]: 4 µg/mL (≈ 2.51 µM)
- MIC Staphylococcus aureus X400 [5]: 8 µg/mL (≈ 5.02 µM)
- MIC Staphylococcus epidermidis EPI1 [6]: 8 µg/mL (≈ 5.02 µM)
- MIC Staphylococcus epidermidis EPI2 [7]: 4 µg/mL (≈ 2.51 µM)
- MIC Streptococcus pyogenes C203 [8]: 1 µg/mL (≈ 0.628 µM)
- MIC Streptococcus pneumoniae Park I [9]: 8 µg/mL (≈ 5.02 µM)
- MIC Streptococcus pneumoniae Group D X66 [10]: 64 µg/mL (≈ 40.2 µM)
- MIC Streptococcus pneumoniae Group 9960 (Streptococcus Group 9960): 16 µg/mL (≈ 10 µM)
- ED50 Streptococcus pyogenes Oral (Streptococcus pyogenes): > 200 mg/kg × 2
- LD50 (toxicity test (LD50)): > 600 mg/kg
- Size of Zone of Inhibition (mm) B. subtilis ATCC 6633, grown on minimal nutrient agar [11]: 20 mm
- Size of Zone of Inhibition (mm) Bacillus subtilis ATCC 6633 [11]: 18 mm

Compound: CCCCCCCCCC(=O)N[C@@H](Cc1c[nH]c2ccccc12)C(=O)N[C@H](CC(N)=O)C(=O)N[C@@H](CC(=O)O)C(=O)N[C@@H]1C(=O)NCC(=O)N[C@@H](CCCN)C(=O)N[C@@H](CC(=O)O)C(=O)N[C@H](C)C(=O)N[C@@H](CC(=O)O)C(=O)NCC(=O)N[C@H](CO)C(=O)N[C@@H]([C@H](C)CC(=O)O)C(=O)N[C@@H](CC(=O)c2ccccc2N)C(=O)O[C@@H]1C [Compound 4]
- LD50 (toxicity test (LD50)): > 300 mg/kg

Compound: CCCCCCCCCCCC(=O)N[C@@H](Cc1c[nH]c2ccccc12)C(=O)N[C@@H](CC(N)=O)C(=O)N[C@@H](CC(=O)O)C(=O)N[C@@H]1C(=O)NCC(=O)N[C@@H](CCCN)C(=O)N[C@@H](CC(=O)O)C(=O)N[C@H](C)C(=O)N[C@@H](CC(=O)O)C(=O)NCC(=O)N[C@H](CO)C(=O)N[C@@H]([C@H](C)CC(=O)O)C(=O)N[C@@H](CC(=O)c2ccccc2N)C(=O)O[C@@H]1C [Compound 6]
- Size of Zone of Inhibition (mm) Staphylococcus aureus ATCC 6738P [1]: 25 mm
- Size of Zone of Inhibition (mm) Micrococcus luteus ATCC 9341 [2]: 19 mm
- MIC Staphylococcus epidermidis EPI1 [6]: 1 µg/mL (≈ 0.607 µM)
- MIC Staphylococcus epidermidis EPI2 [7]: 1 µg/mL (≈ 0.607 µM)
- MIC Streptococcus pyogenes C203 [8]: 0.125 µg/mL and 0.25 µg/mL
- MIC Streptococcus pneumoniae Park I [9]: 0.25 µg/mL (≈ 0.152 µM)
- MIC Streptococcus pneumoniae Group D X66 [10]: 2 µg/mL (≈ 1.21 µM)
- MIC Streptococcus pneumoniae Group 9960 (Streptococcus Group 9960): 0.5 µg/mL (≈ 0.303 µM)
- ED50 Staphylococcus aureus Subcutaneous (Staphylococcus aureus): 0.44 mg/kg × 2
- ED50 Streptococcus pyogenes Oral (Streptococcus pyogenes): 69 mg/kg × 2
- ED50 Streptococcus pyogenes Subcutaneous (Streptococcus pyogenes): 0.05 mg/kg × 2
- LD50 (toxicity test (LD50)): 144 mg/kg
- Size of Zone of Inhibition (mm) B. subtilis ATCC 6633, grown on minimal nutrient agar [11]: 32 mm
- Size of Zone of Inhibition (mm) Bacillus subtilis ATCC 6633 [11]: 20 mm

Compound: CCCCCCCCCCCCCC(=O)N[C@@H](Cc1c[nH]c2ccccc12)C(=O)N[C@@H](CC(N)=O)C(=O)N[C@@H](CC(=O)O)C(=O)N[C@@H]1C(=O)NCC(=O)N[C@@H](CCCN)C(=O)N[C@@H](CC(=O)O)C(=O)N[C@H](C)C(=O)N[C@@H](CC(=O)O)C(=O)NCC(=O)N[C@H](CO)C(=O)N[C@@H]([C@H](C)CC(=O)O)C(=O)N[C@@H](CC(=O)c2ccccc2N)C(=O)O[C@@H]1C [Compound 8]
- Size of Zone of Inhibition (mm) Staphylococcus aureus ATCC 6738P [1]: 22 mm
- Size of Zone of Inhibition (mm) Micrococcus luteus ATCC 9341 [2]: 21 mm
- MIC Staphylococcus aureus X400 [5]: 2 µg/mL (≈ 1.19 µM)
- MIC Staphylococcus epidermidis EPI1 [6]: 1 µg/mL (≈ 0.596 µM)
- MIC Staphylococcus epidermidis EPI2 [7]: 2 µg/mL (≈ 1.19 µM)
- ED50 Streptococcus pyogenes Oral (Streptococcus pyogenes): < 50 mg/kg × 2
- LD50 (toxicity test (LD50)): 62.5 mg/kg
- Size of Zone of Inhibition (mm) B. subtilis ATCC 6633, grown on minimal nutrient agar [11]: 28 mm
- Size of Zone of Inhibition (mm) Bacillus subtilis ATCC 6633 [11]: 21 mm

Compound: CCC(C)CCCCCCC(=O)N[C@@H](Cc1c[nH]c2ccccc12)C(=O)N[C@@H](CC(N)=O)C(=O)N[C@@H](CC(=O)O)C(=O)N[C@@H]1C(=O)NCC(=O)N[C@@H](CCCNC(C)=O)C(=O)N[C@@H](CC(=O)O)C(=O)N[C@H](C)C(=O)N[C@@H](CC(=O)O)C(=O)NCC(=O)N[C@H](CO)C(=O)N[C@@H]([C@H](C)CC(=O)O)C(=O)N[C@@H](CC(=O)c2ccccc2N)C(=O)O[C@@H]1C (some centres unmarked) [Compound 14]
- Size of Zone of Inhibition (mm) Staphylococcus aureus ATCC 6738P [1]: 21 mm
- Size of Zone of Inhibition (mm) Micrococcus luteus ATCC 9341 [2]: 20 mm
- ED50 Staphylococcus aureus Subcutaneous (Staphylococcus aureus): 1.3 mg/kg × 2
- ED50 Streptococcus pyogenes Oral (Streptococcus pyogenes): 163 mg/kg × 2 and > 200 mg/kg × 2
- LD50 (toxicity test (LD50)): > 600 mg/kg
- Size of Zone of Inhibition (mm) B. subtilis ATCC 6633, grown on minimal nutrient agar [11]: 25 mm
- Size of Zone of Inhibition (mm) Bacillus subtilis ATCC 6633 [11]: 18 mm

Compound: CCC(C)CCCCCCC(=O)N[C@@H](Cc1c[nH]c2ccccc12)C(=O)N[C@@H](CC(N)=O)C(=O)N[C@@H](CC(=O)O)C(=O)N[C@@H]1C(=O)NCC(=O)N[C@@H](CCCNC(=O)CCC(=O)O)C(=O)N[C@@H](CC(=O)O)C(=O)N[C@H](C)C(=O)N[C@@H](CC(=O)O)C(=O)NCC(=O)N[C@H](CO)C(=O)N[C@@H]([C@H](C)CC(=O)O)C(=O)N[C@@H](CC(=O)c2ccccc2N)C(=O)O[C@@H]1C (some centres unmarked) [Compound 15]
- Size of Zone of Inhibition (mm) Staphylococcus aureus ATCC 6738P [1]: 21 mm
- Size of Zone of Inhibition (mm) Micrococcus luteus ATCC 9341 [2]: 19 mm
- ED50 Staphylococcus aureus Subcutaneous (Staphylococcus aureus): 6.27 mg/kg × 2
- ED50 Streptococcus pyogenes Oral (Streptococcus pyogenes): > 200 mg/kg × 2
- ED50 Streptococcus pyogenes Subcutaneous (Streptococcus pyogenes): 1.4 mg/kg × 2
- LD50 (toxicity test (LD50)): 450 mg/kg
- Size of Zone of Inhibition (mm) B. subtilis ATCC 6633, grown on minimal nutrient agar [11]: 25 mm
- Size of Zone of Inhibition (mm) Bacillus subtilis ATCC 6633 [11]: 18 mm

Compound: CCCCCCCC(=O)NCCC[C@@H]1NC(=O)CNC(=O)[C@@H](NC(=O)[C@H](CC(=O)O)NC(=O)[C@H](CC(N)=O)NC(=O)[C@H](Cc2c[nH]c3ccccc23)NC(=O)CCCCCCC)[C@@H](C)OC(=O)[C@H](CC(=O)c2ccccc2N)NC(=O)[C@H]([C@H](C)CC(=O)O)NC(=O)[C@@H](CO)NC(=O)CNC(=O)[C@H](CC(=O)O)NC(=O)[C@@H](C)NC(=O)[C@H](CC(=O)O)NC1=O [Compound 16]
- Size of Zone of Inhibition (mm) Staphylococcus aureus ATCC 6738P [1]: 11 mm
- Size of Zone of Inhibition (mm) Micrococcus luteus ATCC 9341 [2]: 10 mm
- MIC Staphylococcus aureus X1.1 [3]: 8 µg/mL (≈ 4.65 µM)
- MIC Staphylococcus aureus V41 [4]: 16 µg/mL (≈ 9.31 µM)
- MIC Staphylococcus aureus X400 [5]: 8 µg/mL (≈ 4.65 µM)
- MIC Staphylococcus epidermidis EPI1 [6]: 16 µg/mL (≈ 9.31 µM)
- MIC Staphylococcus epidermidis EPI2 [7]: 16 µg/mL (≈ 9.31 µM)
- MIC Streptococcus pyogenes C203 [8]: 4 µg/mL (≈ 2.33 µM)
- MIC Streptococcus pneumoniae Park I [9]: 4 µg/mL (≈ 2.33 µM)
- MIC Streptococcus pneumoniae Group D X66 [10]: > 128 µg/mL
- MIC Streptococcus pneumoniae Group 9960 (Streptococcus Group 9960): 64 µg/mL (≈ 37.2 µM)
- LD50 (toxicity test (LD50)): > 600 mg/kg
- Size of Zone of Inhibition (mm) B. subtilis ATCC 6633, grown on minimal nutrient agar [11]: 17 mm
- Size of Zone of Inhibition (mm) Bacillus subtilis ATCC 6633 [11]: tr

Compound: NTrp -(n-Decanoyl)-NKyn -(n-decanoyl)-A-21978C [Compound 21]
- MIC Staphylococcus aureus X1.1 [3]: 1 µg/mL
- MIC Staphylococcus aureus V41 [4]: 4 µg/mL
- MIC Staphylococcus aureus X400 [5]: 32 µg/mL
- MIC Staphylococcus epidermidis EPI1 [6]: 2 µg/mL
- MIC Staphylococcus epidermidis EPI2 [7]: 2 µg/mL
- MIC Streptococcus pyogenes C203 [8]: 0.125 µg/mL
- MIC Streptococcus pneumoniae Park I [9]: 0.5 µg/mL
- MIC Streptococcus pneumoniae Group D X66 [10]: > 128 µg/mL
- MIC Streptococcus pneumoniae Group 9960 (Streptococcus Group 9960): 128 µg/mL

Compound: NTrp -(n-dodecyl)-NOrn -(n-dodecyl)-A-21978C nucleus [Compound 23]
- MIC Staphylococcus aureus X1.1 [3]: 8 µg/mL
- MIC Staphylococcus aureus V41 [4]: 8 µg/mL
- MIC Staphylococcus aureus X400 [5]: 16 µg/mL
- MIC Staphylococcus epidermidis EPI1 [6]: 8 µg/mL
- MIC Staphylococcus epidermidis EPI2 [7]: 8 µg/mL
- MIC Streptococcus pyogenes C203 [8]: 4 µg/mL
- MIC Streptococcus pneumoniae Park I [9]: 8 µg/mL
- MIC Streptococcus pneumoniae Group D X66 [10]: 32 µg/mL
- MIC Streptococcus pneumoniae Group 9960 (Streptococcus Group 9960): 8 µg/mL
